Assay [1] is filed under the species Rattus norvegicus. Put plainly: Agonist activity tested in [Ca2+] -influx assay by using neonatal rat cultured spinal sensory neurons. The class given is functional.
The species named for assay [2] is Rattus norvegicus. The assay is described as follows: Antagonist activity tested in [Ca2+] -influx assay by using neonatal rat cultured spinal sensory neurons. The class given is functional.

The structures appear in SMILES notation.

In general, EC50 refers to the concentration needed to bring the measured effect to its halfway point. One may read the IC50 as the point on the concentration scale where inhibition reaches its midpoint. A lower IC50 goes with higher potency. In the assay listed under Rattus norvegicus [1], `COc1cc(C2CCCN2/C(S)=N/CCc2ccccc2)ccc1O` (stereo not given) yielded an EC50 of over 100 µM. This molecule also yielded an IC50 in the assay filed under Rattus norvegicus [2] of over 100 µM.
`Oc1ccc(CCC2CCCN2/C(S)=N/CCc2ccccc2)cc1O` (stereo not given): the EC50 in the assay listed under Rattus norvegicus [1] is over 100 µM. The IC50 in the assay filed under Rattus norvegicus [2] is 55 µM.
With `Oc1ccc(C2CCCN2/C(S)=N/CCc2ccccc2)cc1O` (stereo not given), in the assay listed under Rattus norvegicus [1], the EC50 is over 100 µM. In addition, the IC50 in the assay listed under Rattus norvegicus [2] is over 100 µM.
In the assay filed under Rattus norvegicus [1], `COc1cc(CCC2CCCN2/C(S)=N/CCc2ccccc2)ccc1O` (stereo not given) showed an EC50 of over 100 µM. The IC50 in the assay filed under Rattus norvegicus [2] was 3 µM.
In the same order, the values of `Oc1cc2c(cc1O)CN(C(=S)NCCc1ccc(Cl)cc1)CCC2` [CAPSAZEPINE] are over 100 µM and 0.6 µM.
